{"source": "patent US20240016882A1", "about": "“AUTOPHAGY-INHIBITING PEPTIDE AND ORGANIC ACID SALT THEREOF ADDRESSING ISSUES OF VASCULAR PERMEABILITY” (BIOTEMPT B.V., priority 2020, published 2024)", "key": {"[1]": {"molecular_target": "mTOR kinases (Homo sapiens, UniProt P42345)", "conditions": "cited from earlier work"}, "[2]": {"test_system": "human cells", "conditions": "AJ Meijer et al Amino Acids 2015; cited from earlier work"}, "[3]": {"test_system": "autophagy", "conditions": "cited from earlier work"}, "[4]": {"from_the_text": "(§1) At first attempts were made to mix a solution of the free base and an acid in order to achieve a concentrated DMSO solution of the salt and subsequently dilute this in water in order to determine solubility. […] It was decided to determine the solubility of the salts required by dilution of known amount of salts (not soluble) till a clear solution is obtained."}, "[5]": {"experiment": "Solubility / aggregation points of AQGV salts in 0.9% NaCl", "from_the_text": "as §1"}, "[6]": {"experiment": "Dose-escalating phase I studies: pharmacokinetics, safety and tolerability of AQGV", "type": "in vivo, humans (healthy subjects)", "procedure": "Three double-blind, randomized, placebo-controlled, dose-escalating phase I studies in healthy subjects were conducted to evaluate safety, tolerability and pharmacokinetics of AQGV (SEQ ID NO: 5). In the first single dose study, 32 subjects were assigned to four single dosage groups (1, 3, 10 or 30 mg/kg). In the second multiple dosage study, 24 subjects were assigned to three dosing groups (10, 20 or 30 mg/kg) and received study medication thrice a day for three days. In the third continuous dosing study, 24 subjects were assigned to three dosing groups (15, 30 or 90 mg/kg/hour) to receive study medication by 2-hour continuous iv infusion. Pharmacokinetics (PK), safety and tolerability assessments were performed up to 14-days."}, "[7]": {"test_system": "PKB (also known as AKT)", "experiment": "Phosphorylation status after fMLP challenge of hPBMCs: PKB (AKT)", "type": "cell-based, human", "conditions": "1 μM fMLP", "procedure": "(§2) Human-derived peripheral blood monocytes as a prototype cell-system for FPR-expression were isolated from healthy volunteers (hPBMCs) according to routine procedures^1 at University Medical Centre Groningen, The Netherlands. Subsequently PMBC were incubated with the Biotempt-supplied peptide AQGV (SEQ ID NO: 5) (which was freshly prepared as a 20 […] stock solution in bidistilled water) or treated with the vehicle for 10 min. Then hPMBCs were challenged with 1 μM fMLP for various time periods (see results FIGS. 4a, b, 4c and 4d). Each stimulus 0, 30, 60, 300 and 600 seconds at two concentrations AQGV (SEQ ID NO: 5), 20 ng/ml and 50 ng/ml and in six-fold. Following stimulation with fMLP for the indicated time periods, the phosphorylation status of p38MAPK, JNK, PKB, P42/p44MAPK/ERK1,2 and STAT3 was analysed 3. STAT3 was undetectable, JNK and P42/p44MAPK/ERK1,2."}, "[8]": {"test_system": "JNK", "experiment": "Phosphorylation status after fMLP challenge of hPBMCs: JNK", "type": "cell-based, human", "conditions": "hPBMC, 1 μM fMLP, 0-600 seconds", "procedure": "as §2"}, "[9]": {"test_system": "p38 MAPK", "experiment": "Phosphorylation status after fMLP challenge of hPBMCs: p38 MAPK", "type": "cell-based, human", "conditions": "1 μM fMLP", "procedure": "as §2"}, "[10]": {"test_system": "P42/p44MAPK/ERK1,2", "experiment": "Phosphorylation status after fMLP challenge of hPBMCs: P42/p44MAPK/ERK1,2", "type": "cell-based, human", "conditions": "hPBMC, 1 μM fMLP, 0-600 seconds", "procedure": "as §2"}, "[11]": {"experiment": "Previous first in human study of AQGV", "type": "in vivo", "conditions": "up to i.v. doses of 30 mg/kg three times a day (90 mg/kg daily) for three days"}, "[12]": {"parameters": "species or system male CD-1 mice", "conditions": "mouse, in vivo", "procedure": "The present study, which was conducted by TNO Biosciences, Utrechtseweg, Netherlands, was designed to provide data on the distribution and metabolism of [14C]-AQGV (“AQGV” disclosed as SEQ ID NO: 5) (Ala-Gln-[1-^14C]Gly-Val (“AQGV” disclosed as SEQ ID NO: 5)) in male CD-1 mice following a single intravenous dose of 50 mg/kg. To this end, mice were sacrificed at […], and 6 and 24 hours after administration of radiolabeled AQGV (SEQ ID NO: 5), counts in various tissues were determined, and the radioactivity present in the urine and plasma were analyzed by HPLC."}, "[13]": {"conditions": "cited from earlier work"}}, "note": "Like-named read-outs stand apart in the source and are kept apart here. Ends that are not written are not given here. Peptide text beside a SMILES is read from it."}
{"compound": "CC(C)[C@H](N)C(=O)O", "note": "[L-Valine]", "values": [{"measurement": "Literature based activity mTOR kinases", "setting": "[1]", "result": "activate"}]}
{"compound": "N[C@@H](Cc1c[nH]cn1)C(=O)O", "note": "[L-Histidine]", "values": [{"measurement": "Literature based activity mTOR kinases", "setting": "[1]", "result": "down"}]}
{"compound": "CSCC[C@H](N)C(=O)O", "note": "[L-Methionine]", "values": [{"measurement": "Literature based activity mTOR kinases", "setting": "[1]", "result": "partial"}]}
{"compound": "NCCCC[C@H](N)C(=O)O", "note": "[L-Lysine]", "values": [{"measurement": "Literature based activity mTOR kinases", "setting": "[1]", "result": "down"}]}
{"compound": "CC(C)C[C@H](N)C(=O)O", "note": "[L-Leucine]", "values": [{"measurement": "Literature based activity mTOR kinases", "setting": "[1]", "result": "activate"}, {"measurement": "autophagic effects on human cells", "setting": "[2]", "result": "most prominent autophagic effects"}, {"measurement": "Literature based activity autophagy", "setting": "[3]", "result": "DOWN"}]}
{"compound": "NCC(=O)O", "note": "[L-Glycine]", "values": [{"measurement": "Literature based activity autophagy", "setting": "[3]", "result": "DOWN"}]}
{"compound": "C[C@@H](O)[C@H](N)C(=O)O", "note": "[L-Threonine]", "values": [{"measurement": "Literature based activity mTOR kinases", "setting": "[1]", "result": "down"}]}
{"compound": "C[C@H](N)C(=O)O", "note": "[L-Alanine]", "values": [{"measurement": "autophagic effects on human cells", "setting": "[2]", "result": "most prominent autophagic effects"}, {"measurement": "Literature based activity autophagy", "setting": "[3]", "result": "DOWN"}]}
{"compound": "NC(=O)CC[C@H](N)C(=O)O", "note": "[L-Glutamine]", "values": [{"measurement": "Literature based activity mTOR kinases", "setting": "[1]", "result": "activate"}, {"measurement": "autophagic effects on human cells", "setting": "[2]", "result": "most prominent autophagic effects"}, {"measurement": "Literature based activity autophagy", "setting": "[3]", "result": "DOWN"}]}
{"compound": "Nc1ncnc2c1ncn2[C@@H]1O[C@H](CO)[C@@H](O)[C@H]1O", "note": "[adenosine]", "values": [{"measurement": "solubility in DMSO", "setting": "[4]", "result": "did not dissolve in DMSO at all"}, {"measurement": "appearance / behaviour of the concentrated solution", "setting": "[5]; 0.9% NaCl", "result": "no clear solution could be obtained"}]}
{"compound": "CC(C)[C@H](NC(=O)CNC(=O)[C@H](CCC(N)=O)NC(=O)[C@H](C)N)C(=O)O", "note": "[AQGV] (H-AQGV-OH)", "values": [{"measurement": "clearance", "setting": "[6]; human, in vivo, iv, range over phase I studies, read-out: clearance rate", "result": "433 to 1020", "unit": "mL/min/kg"}, {"measurement": "half-life", "setting": "[6]; human, in vivo, iv, range over phase I studies, read-out: estimated half life time", "result": "2 to 22", "unit": "min"}, {"measurement": "Vd", "setting": "[6]; human, in vivo, iv, range over phase I studies, read-out: volume of distribution", "result": "4 to 33", "unit": "L/kg"}, {"measurement": "more than proportional increases in exposure to the highest dosages", "setting": "[6]; i.v., range over phase I studies", "result": "126-137%"}, {"measurement": "tolerability", "setting": "[6]; i.v., single, multiple and continuous dosing up to 90 mg/kg/hour", "result": "well tolerated"}, {"measurement": "serious adverse events", "setting": "[6]; phase I studies", "result": "no serious adverse events"}, {"measurement": "subjects reporting AEs with a possible relationship to study drug", "setting": "[6]; subjects receiving AQGV", "result": 3, "unit": "subjects"}, {"measurement": "effect on PI3K/AKT/mTOR activated induced changes", "setting": "[7]; hPBMC", "result": "reduces PI3K/AKT/mTOR activated induced changes"}, {"measurement": "duration of effects on PKB-mediated signalling", "setting": "[7]; hPBMC, 600 seconds tested", "result": 600, "unit": "s"}, {"measurement": "time after FPR-stimulation at which effects on PKB(AKT) follow", "setting": "[7]; hPBMC, bi-phasic pattern", "result": 300, "unit": "s"}, {"measurement": "effect on JNK phosphorylation status", "setting": "[8]", "result": "not affected throughout"}, {"measurement": "effect on p38 MAPK kinase activated changes", "setting": "[9]; hPBMC", "result": "reduces p38 MAPK kinase activated changes"}, {"measurement": "time after FPR-stimulation at which effects on p38 MAPK are detected", "setting": "[9]; hPBMC, 20 and 50 ng/ml AQGV", "result": 30, "unit": "s"}, {"measurement": "duration of effects on p38 signalling", "setting": "[9]; hPBMC, 600 seconds tested", "result": 600, "unit": "s"}, {"measurement": "effect on P42/p44MAPK/ERK1,2 phosphorylation status", "setting": "[10]", "result": "not affected throughout"}, {"measurement": "tolerability", "setting": "[11]", "result": "well tolerated"}]}
{"compound": "Ala-Gln-[1-^14C]Gly-Val [[14C]-AQGV]", "values": [{"measurement": "administered radioactivity exhaled as volatiles", "setting": "[12]", "result": "About 50%"}, {"measurement": "time to full hydrolysis of the peptide after administration", "setting": "[12]", "result": 15, "unit": "min"}]}
{"compound": "CC(C)[C@H](NC(=O)CNC(=O)[C@H](CCC(N)=O)NC(=O)[C@H](C)N)C(=O)O", "note": "[AQGV-citrate] (H-AQGV-OH)", "values": [{"measurement": "solubility compared to AQGV-Ac", "setting": "[5]; 0.9% NaCl", "result": "Higher solubility"}, {"measurement": "appearance / behaviour of the concentrated solution", "setting": "[5]; 0.9% NaCl, listed as Citric acid", "result": "does not crystallize or aggregate but tend to form a highly viscous solution"}, {"measurement": "appearance / behaviour of the concentrated solution", "setting": "[5]; 0.9% NaCl, listed as citric acid", "result": "remains clear but got very thick/viscous"}, {"measurement": "total amount dissolved", "setting": "[5]; in 0.5 mL 0.9% NaCl", "result": 2.75, "unit": "mmol"}]}
{"compound": "O=C(O)[C@@H]1CCCN1", "note": "[L-Proline]", "values": [{"measurement": "Literature based activity mTOR kinases", "setting": "[1]", "result": "activate"}, {"measurement": "autophagic effects on human cells", "setting": "[2]", "result": "most prominent autophagic effects"}]}
{"compound": "VRLIVAVRIWRR-NH2 [IDR-1018]", "values": [{"measurement": "aggregation", "setting": "[13]; prepared in sodium acetate", "result": "did not induce any appreciable aggregation"}, {"measurement": "aggregation", "setting": "[13]; solutions containing large polyatomic anions: phosphate, benzoate, nitrate, citrate", "result": "suffer strongly from aggregation"}, {"measurement": "aggregation", "setting": "[13]; solutions containing sulfate, bicarbonate, chloride, iodide anions", "result": "comparatively small amount of aggregation"}, {"measurement": "ion concentration at which aggregation was observed", "setting": "[13]; sulfate, bicarbonate, chloride, iodide anions", "result": "above 200 mM"}]}
{"compound": "CSCC[C@H](NC=O)C(=O)N[C@@H](CC(C)C)C(=O)N[C@@H](Cc1ccccc1)C(=O)O", "note": "[fMLP, N-formyl-methionyl-leucyl-phenylalanine, reference compound]", "values": [{"measurement": "changes in phosphorylation status of PKB caused by FPR-activation", "setting": "[7]; p<0.05 at 600 sec", "result": "rapidly induced and significant"}, {"measurement": "changes in phosphorylation status of p38 MAPK caused by FPR-activation", "setting": "[9]; p<0.05 from 60 to 600 sec", "result": "rapidly induced and significant"}]}
{"compound": "N=C(N)NCCC[C@H](N)C(=O)O", "note": "[L-Arginine]", "values": [{"measurement": "Literature based activity mTOR kinases", "setting": "[1]", "result": "activate"}, {"measurement": "Literature based activity autophagy", "setting": "[3]", "result": "DOWN"}]}
{"compound": "Nc1ncnc2c1ncn2[C@@H]1O[C@H](COP(=O)(O)O)[C@@H](O)[C@H]1O", "note": "[adenosine-monophosphate]", "values": [{"measurement": "appearance / behaviour of the concentrated solution", "setting": "[5]; 0.9% NaCl", "result": "no clear solution could be obtained"}]}
{"compound": "CC[C@H](C)[C@H](N)C(=O)O", "note": "[L-Isoleucine]", "values": [{"measurement": "Literature based activity mTOR kinases", "setting": "[1]", "result": "activate"}, {"measurement": "Literature based activity autophagy", "setting": "[3]", "result": "DOWN"}]}
